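In this assay, cells in 96-well plates receive the compound at five concentrations for 48 hours. Endpoints are linearly interpolated between the surrounding concentrations. GI50: concentration for 50% inhibition of growth. At the TGI there is no net growth.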
How the values were obtained:
Experiment in all cases: NCI-60 cell line screen, 48 h
[1] = system: A498 renal
[2] = system: CCRF-CEM leukemia
[3] = system: HCC-2998 colon
[4] = system: NCI-H226 lung
[5] = system: SF-295 CNS
[6] = system: SF-539 CNS
[7] = system: UO-31 renal
[8] = system: HL-60(TB) leukemia
[9] = system: SR leukemia
[10] = system: BT-549 breast

| Compound | GI50 [1] [µM] | TGI [1] [µM] | GI50 [2] [µM] | TGI [2] [µM] | GI50 [3] [µM] | TGI [3] [µM] | GI50 [4] [µM] | TGI [4] [µM] | GI50 [5] [µM] | TGI [5] [µM] | GI50 [6] [µM] | TGI [6] [µM] | GI50 [7] [µM] | TGI [7] [µM] | TGI [8] [µM] | TGI [9] [µM] | GI50 [10] [µM] | TGI [10] [µM] | GI50 [8] [µM] |
| --- | --- | --- | --- | --- | --- | --- | --- | --- | --- | --- | --- | --- | --- | --- | --- | --- | --- | --- | --- |
| CC(=O)[CH-]C(=O)c1ccccc1.CC(=O)[CH-]C(=O)c1ccccc1.CC1(C)OCC(C2OC3OC(C)(C)OC3C2[O-])O1.CC[O-].[Ti+4] (stereo not given) | 15.3 | 28.6 | 4.71 | > 100 | 15.4 | 29.9 | 15.2 | 30.1 | 17.1 | 31.6 | 13.3 | 27.4 | 18.8 | 41.9 | – | – | – | – | – |
| Cc1cccc(C)c1N1C(=O)C(=O)C(c2nc3ccccc3s2)/C(=N/NC(=O)NN)C1=O (stereo not given) | – | > 100 | – | > 100 | – | > 100 | – | > 100 | – | > 100 | – | > 100 | – | > 100 | > 100 | > 100 | – | – | – |
| COc1ccc(C2Oc3c(c(O)cc4c3[C@H](c3ccc(O)cc3O)[C@H](O)C(c3ccc(O)c(O)c3)O4)C[C@@H]2O)cc1O (stereo not given in full) | – | > 100 | – | > 100 | – | > 100 | – | > 100 | – | > 100 | – | > 100 | – | > 100 | > 100 | > 100 | – | – | – |
| Cc1c2ccncc2c(C)c2c1[nH]c1ccc(O)c(OCC(F)(F)F)c12 | – | 37.5 | – | 7.18 | – | 19.3 | – | 20.1 | – | 14.8 | – | 16.3 | – | 19.9 | 11.6 | – | – | – | – |
| O=C1/C(=C/c2ccc([N+](=O)[O-])cc2)COc2ccc(O)cc21 | 4.52 | > 100 | 0.647 | 3.29 | 1.74 | 3.21 | 15.3 | 72.4 | > 100 | > 100 | 4.42 | 18.3 | 1.45 | 3.6 | 7.92 | – | 18.5 | 50.4 | 2.48 |
| C=C1C2Oc3ccccc3C1N(c1ccccc1)O2 (stereo not given) | – | – | – | 89.5 | – | > 100 | – | > 100 | – | 62.7 | – | 57.3 | – | > 100 | > 100 | > 100 | – | – | – |
| O=C(/C=C/c1cccc(O)c1)c1cccc(-n2cc(-c3ccc4ccccc4c3)[nH]c2=O)c1 | – | – | 2.03 | > 100 | 2.13 | 5.11 | 2.43 | 8.91 | 1.44 | 3.63 | 1.55 | 2.89 | 1.26 | 2.64 | 3.21 | – | 1.89 | 5.14 | 1.01 |
| CC(C)(C)NCC(COc1ccc([N+](=O)[O-])cc1)OP(c1ccccc1)c1ccccc1 (stereo not given) | – | > 100 | – | 79.2 | – | > 100 | – | 94.7 | – | > 100 | – | > 100 | – | > 100 | 47.3 | – | – | – | – |
| O=C(CC1(O)C(=O)Nc2c(Cl)ccc(Cl)c21)c1ccc(Cl)cc1Cl (stereo not given) | – | 42.5 | – | – | – | 32.2 | – | 30.5 | – | 41.6 | – | 39.8 | – | 37.1 | – | – | – | – | – |
| COc1ccccc1NC(=O)/C(=C/c1ccccc1)C(C)=O | – | – | – | > 100 | – | > 100 | – | > 100 | – | 71 | – | 62 | – | > 100 | 57.3 | > 100 | – | – | – |
| CC(C)(C)c1ccc(OC2CCO2)cc1 (stereo not given) | – | > 100 | – | 65 | – | 94.1 | – | 92.8 | – | > 100 | – | 98.6 | – | > 100 | – | – | – | – | – |
| CC(C)(C)OC(=O)NC1CCCC1=O (stereo not given) | – | > 100 | – | > 100 | – | > 100 | – | > 100 | – | > 100 | – | > 100 | – | > 100 | – | > 100 | – | – | – |
| Cc1cc(C)n(C2=NS(=O)(=O)c3ccccc3N2C)n1 | – | > 100 | – | > 100 | – | > 100 | – | > 100 | – | > 100 | – | > 100 | – | > 100 | > 100 | – | – | > 100 | – |
| O=S1CSSC1 | – | > 100 | – | 46.2 | – | 45.8 | – | 71.7 | – | 65.1 | – | 40.1 | – | 34.7 | 61.5 | 47.2 | – | – | – |
| CCOC(=O)N1CCN(CCCCCOc2ccccc2C2CCCCC2)CC1 | 13.5 | 26.9 | 4.42 | 18.4 | – | – | 3.96 | 18.4 | 2.65 | 13.9 | 6.39 | 19.1 | – | – | 3.5 | – | 3 | 11.3 | 1.39 |
| CN(C)C(=S)Nc1nnc(Nc2ccccc2)s1 | – | > 100 | – | > 100 | – | > 100 | – | > 100 | – | – | – | > 100 | – | > 100 | > 100 | > 100 | – | – | – |
| C=CCNC(=O)N(CCC)CCCC(NC(C)=O)C(=O)NCc1ccccc1 (stereo not given) | – | > 100 | – | > 100 | – | – | – | > 100 | – | > 100 | – | > 100 | – | > 100 | > 100 | – | – | – | – |
| CCCCCCCCCCCC1CC(=O)NCCCN(C)CCCCN(C)CCCN1C (stereo not given) | – | 3.14 | – | 2.85 | – | 3.21 | – | 3.43 | – | 3.07 | – | 3.17 | – | 3.11 | 5.32 | 0.605 | – | – | – |
| COC(=O)c1ccc2c(c1)C(=O)c1c-2n(CCCN=[N+]=[N-])c(=O)c2cc([N+](=O)[O-])ccc12 | > 100 | > 100 | 42.2 | > 100 | > 100 | > 100 | > 100 | > 100 | 59.8 | > 100 | 53.1 | > 100 | > 100 | > 100 | > 100 | – | 24.1 | 69.6 | > 100 |
| O=C1c2ccccc2-c2c1c1ccccc1c(=O)n2CCNCCn1c2c(c3ccccc3c1=O)C(=O)c1ccccc1-2 | > 25 | > 25 | – | – | – | – | > 25 | > 25 | > 25 | > 25 | > 25 | > 25 | > 25 | > 25 | – | – | > 25 | > 25 | – |

— PubChem BioAssay (NCI)
